Assay results taken from patent US12678478B2, “Compositions and methods for treating dysregulated wound healing” (The Regents of the University of California, priority 2020, dated 2026).

Assays:
Col5a1CKO animals = assay: Acute ischemic cardiac injury (LAD ligation) in Col5a1CKO animals treated with cilengitide; assay type: in vivo, mouse
[1] = test system: control (Cre(−)Col5a1fl/fl) littermate animals; assay: Acute ischemic cardiac injury (LAD ligation) in control littermates treated with cilengitide; assay type: in vivo, mouse
Description: All animal studies were approved by the Animal Research Committee, University of California, Los Angeles, Myocardial infarction was performed by ligating the left anterior descending (LAD) coronary artery following open thoracotomy. Briefly, Mice were anesthetized with ketamine (80 mg/kg)/xylazine (20 mg/kg) by intraperitoneal injection. Respiration was provided by mechanical ventilation with 95% 02 (tidal volume 0.5 ml, 130 breaths/min). The LAD coronary artery was ligated intramurally 2 mm from its origin with a 9-0 proline suture.
For experiments related to use of cilengitide, 20 mg/kg of Cilengitide diluted in PBS was administered by intraperitoneal injection every day until harvest and PBS was used as vehicle as a control.
For echocardiography, animals were continuously anesthetized with 1.5% isoflurane and 95% O2, Vevo2100 imaging system and a […] scan head (Toronto, Canada) were used to acquire short/long axis B-mode and M-mode images. Long axis B-mode view was used for analyzing peak longitudinal strain rate. […]
For Masson Trichrome staining, sections were stained using Masson Trichrome Stain kit (Thermo Scientific, 87019). Images were taken in heart sections from apex, mid-ventricle, and close to suture and fibrotic area analyzed from apex to mid-ventricle. Scar tissue area was calculated as the fraction of left ventricular surface area occupied by the scar tissue. […]

[2] = test system: Col5a1CKO cardiac fibroblasts; assay: Myofibroblast gene expression (qPCR) in Col5a1CKO cardiac fibroblasts generated ex vivo with or without cilengitide; assay type: cell-based, mouse; settings: Cilengitide 1 μM, 7 days, Col5a1 floxed cardiac fibroblasts infected with lentiviral Cre, versus no cilengitide (FIG. 8F)
Description: For qPCR, and RNA-seq, the injured and uninjured regions of the heart were harvested at different time points following injury, RNA extracted using RNeasy Mini kit (Qiagen). cDNAs were generated using iScript cDNA Synthesis Kit (BioRad) and qPCR performed.
Cardiac fibroblasts were isolated from Col5a1 fl/fl mouse as described above. These cells were infected with Lentivirus-Large T antigen in presence of polybrene (8 μg/ml) for 16 h, treated with puromycin (2 μg/ml) for selection of infected cells. Immortalized cells were cultured with 10% FBS containing high glucose DMEM. Cells so immortalized were then infected with Lentivirus-Cre recombinase or lentivirus-GFP to generate Col5a1 deficient cardiac fibroblast or control cardiac fibroblast, respectively. These cells were cultured for 6-7 days and used for each experiment to determine effects on gene expression. To determine an effect of Cilengitide on these cells, Col5a1fl/fl cardiac fibroblasts were pretreated with Cilengitide (1 μM) in 10% FBS containing high glucose DMEM for 1 h before infection with lentivirus-Cre recombinase or lentivirus-GFP. […]
Given the upregulation of αvβ3 and αvβ5 integrins in Col5a1CKO cardiac fibroblasts, whether there was a causal relationship between these differentially expressed integrins and myofibroblast differentiation was determined. […]

`CC(C)[C@H]1C(=O)N[C@@H](CCCN=C(N)N)C(=O)NCC(=O)N[C@@H](CC(=O)O)C(=O)N[C@H](Cc2ccccc2)C(=O)N1C` [cilengitide, Cilengitide] was tested, and the “fraction of animals exhibiting severe fibrosis” value (Col5a1CKO animals; 20 mg/kg daily for 14 days, 2 weeks post injury, severe = >50% fibrotic area (FIG. 8L)) was 22%, the “degree of myocyte hypertrophy in the border zone (heart weight/body weight ratios and histological analysis)” value (Col5a1CKO animals; 20 mg/kg daily for 14 days, 2 weeks post injury, versus vehicle-injected group, p<0.05 (FIGS. 8N, 8O)) was “substantially reduced” and the “Scar size expressed as a fraction of left ventricular surface area” value (Col5a1CKO animals; 20 mg/kg daily for 14 days, Masson trichrome, 2 weeks post injury, mean±S.D., n=9, p<0.05 versus Col5a1CKO+vehicle (FIGS. 8J, 8K)) was 41.2±16.1%. The “post injury cardiac function (EF, FS by echocardiography)” value (Col5a1CKO animals; 20 mg/kg daily intraperitoneal for 14 days from day of injury, 1 and 2 weeks after injury, versus vehicle-injected Col5a1CKO (FIGS. 8H, 8I)) was “complete rescue of function”, the “number of myofibroblasts (αSMA+vimentin+cells/vimentin+cells) in scars” value (Col5a1CKO animals; 2 weeks of cilengitide injection, 20 mg/kg daily, versus vehicle-injected group, p<0.05 (FIG. 8M)) was “significantly reduced” and the “post injury cardiac function (EF, FS by echocardiography)” value ([1]; 20 mg/kg daily for 14 days from day of injury, control littermates (FIG. 8H)) was “did not affect”. For the same compound, the scar size ([1]; 20 mg/kg daily for 14 days, control animals, 2 weeks post injury (FIGS. 8J, 8K)) was “did not affect” and the “expression of myofibroblast markers” value [2] was “significantly reduced”.
